Experimental data as given in patent US7851573B2, “Aqueous polytetrafluoroethylene emulsion, polytetrafluoroethylene fine powder and porous material obtained therefrom” (Asahi Glass Company, Limited, priority 2005, dated 2010).

Experiments:
[1] = background art statement, no method given; cited from earlier work
[2] = 1-octanol/water partition coefficient (LogPOW) by HPLC, OECD Test Guideline 117; assay type: physicochemical; conditions: for LogPOW: HPLC method, ODS column, acetonitrile/0.6 mass % HClO4 aq. 1/1, 40° C., calibration with C7-C10 carboxylic acids; for bioaccumulation potential / accumulation in a living organism: judged from the LogPOW value compared to APFO
Method: In accordance with OECD Test Guideline 117, 1-octanol/water partition coefficient (LogPOW) of a fluorinated emulsifier was measured by using HPLC (high performance liquid chromatography).
Conditions for the measurement were as follows: column: TOSOH ODS-120T column ((φ 4.6 mm×250 mm), eluent: acetonitrile/0.6 mass % of HClO4 aqueous solution=1/1 (vol/vol %), flow rate: 1.0 mL/minute, sample amount: 300 μL, column temperature: 40° C., and detection light: UV 210 nm (WO2005-42593).
HPLC was carried out on standard substances (heptanoic acid, octanoic acid, nonanoic acid and decanoic acid) having known 1-octanol/water partition coefficients, and a calibration curve was prepared from the respective elution times and octanol/water partition coefficients of the respective standard substances. Based on this calibration curve, a value of partition coefficient (LogPOW) between 1-octanol and water was calculated from the elution time by HPLC of the fluorinated emulsifier.
Further, in general, in order to judge whether or not a chemical substance is apt to be accumulated in a living organism, a testing method for measurement of a partition coefficient (LogPOW) between 1-octanol and water, is stipulated. As the testing method, in addition to “Partition Coefficient (1-octanol/water) Shake Flask Method” as stipulated in OECD test guideline 107 and in Japanese Industrial Standards Z 7260-107 (2000), a HPLC method (high-performance liquid chromatography) as stipulated and published in OECD Test Guideline 117, is used. A compound having a large partition coefficient value has a large tendency for bioaccumulation, and a compound having a small value means a small tendency for bioaccumulation. In a case where the LogPOW value is less than 3.5, it is considered proper to judge that it is not a high-concentration, and bioaccumulation is also considered to be small.

| SMILES | bioaccumulation potential [1] | LogPOW [2] | bioaccumulation potential / accumulation in a living organism [2] |
| --- | --- | --- | --- |
| N.O=C(O)C(F)(F)C(F)(F)C(F)(F)C(F)(F)C(F)(F)C(F)(F)C(F)(F)F [CF3(CF2)6COONH4, ammonium perfluorooctanoate] | high | 3.67 | – |
| N.O=C(O)C(F)(OC(F)(F)C(C(F)(F)F)C(F)(F)C(F)(F)C(F)(F)F)C(F)(F)F (stereo not shown) [CF3CF2CF2C(CF3)CF2OCF(CF3)COONH4] | higher bioaccumulation potential than APFO | – | – |
| N.O=C(O)C(F)(F)OC(F)(F)C(F)(F)OC(F)(F)C(F)(F)F [CF3CF2OCF2CF2OCF2COONH4] | – | 3.13 | low |
| N.O=C(O)C(F)(OC(F)(F)C(F)(OC(F)(F)C(F)(F)F)C(F)(F)F)C(F)(F)F (stereo not shown) [CF3CF2OCF(CF3)CF2OCF(CF3)COONH4] | – | 4.03 | high |
